{
  "source": "paper PMC8300879",
  "about": "(Journal of medicinal chemistry, 2021)",
  "key": {"[1]": {"test_system": "ABC derived from IPF patients", "test": "3D organoid", "assay_type": "cell-based, human", "settings": "ABC from IPF patients (n = 3), 14 days"}, "[2]": {"test_system": "tubulin acetylation (the client protein of HDAC6) in NB4, U87 and U2OS cells", "test": "Western blot, acetylation of α-tubulin in cancer cell lines", "assay_type": "cell-based", "settings": "5 μM for 30 h; for acetylation of tubulin: NB4 and U87 cells"}, "[3]": {"test_system": "acetylation of histone H3 (primary substrate of HDAC1 and other nuclear HDACs) in NB4, U87 and U2OS cells", "test": "Western blot, acetylation of histone H3 in cancer cell lines", "assay_type": "cell-based", "settings": "5 μM for 30 h"}, "[4]": {"test_system": "zebrafish larvae (Danio rerio)", "test": "Toxicity screen and optokinetic visual behaviour assay in zebrafish larvae", "assay_type": "in vivo"}, "[5]": {"test_system": "TA98 and TA100 strains of Salmonella typhimurium", "test": "Ames test with and without S9 fraction", "assay_type": "cell-based", "settings": "TA98 and TA100, with and without S9 fraction of rat liver, 1–75 μM"}, "[6]": {"test_system": "TGF-β1-stimulated human lung parenchyma", "test": "Human lung tissue explant model of TGF-β1-dependent fibrogenesis", "assay_type": "cell-based", "settings": "6h 4.1 μM, TGF-β1 10 ng/ml, 7 days"}},
  "data": [
    {"smiles": "CC1(C)c2ccccc2N(Cc2ccc(C(=O)NO)cc2)C1c1ccncc1", "note": "(racemic) [(±)-6l]", "values": [
      {"measurement": "spheres formation", "setting": "[1]", "value": "complete inhibition"},
      {"measurement": "acetylation of tubulin", "setting": "[2]", "value": "marked acetylation of tubulin"},
      {"measurement": "acetylation of α-tubulin versus histone H3", "setting": "[2]; U2OS cell line", "value": "preferentially promote acetylation of α-tubulin"},
      {"measurement": "histone H3 acetylation", "setting": "[3]", "value": "unchanged"}
    ]},
    {"smiles": "CC1(C)c2ccccc2N(Cc2ccc(C(=O)NO)cc2)C1c1cccnc1", "note": "(racemic) [(±)-6h, (±)-4-((3,3-Dimethyl-2-(pyridin-3-yl)indolin-1-yl)methyl)-N-hydroxybenzamide]", "values": [
      {"measurement": "spheres formation", "setting": "[1]", "value": "complete inhibition"},
      {"measurement": "toxic effects observed", "setting": "[4]; 100 μM, 3 days old larvae treated for 2 days", "value": "some larvae failed to inflate their swim bladder and presented mild cardiac edema"},
      {"measurement": "well tolerated concentration", "setting": "[4]; 3 days old larvae treated for 2 days, 1-100 μM", "value": "up to 50 μM"},
      {"measurement": "visual behavior versus vehicle control (0.1% DMSO)", "setting": "[4]; five days old larvae, 1 to 100 μM", "value": "no significant changes"},
      {"measurement": "acetylation of tubulin", "setting": "[2]", "value": "marked acetylation of tubulin"},
      {"measurement": "histone H3 acetylation", "setting": "[3]", "value": "unchanged"},
      {"measurement": "mutagenic effect", "setting": "[5]", "value": "no mutagenic effect"},
      {"measurement": "mRNA expression for HDAC6", "setting": "[6]; n = 3 donors", "value": "significantly inhibited"},
      {"measurement": "mRNA expression for collagen type I", "setting": "[6]; n = 6 donors", "value": "significantly inhibited"},
      {"measurement": "mRNA expression for collagen type III", "setting": "[6]; n = 6 donors", "value": "significantly inhibited"},
      {"measurement": "mRNA expression for fibronectin", "setting": "[6]; n = 6 donors", "value": "significantly inhibited"},
      {"measurement": "mRNA expression for α-SMA", "setting": "[6]; n = 6 donors", "value": "significantly inhibited"}
    ]},
    {"smiles": "CN1CCC2(CC1)c1ccccc1N(Cc1ccc(C(=O)NO)cc1)C2c1ccc(F)cc1", "note": "(racemic) [(±)-6e, (±)-4-((2-(4-Fluorophenyl)-1’-methylspiro[indoline-3,4’-piperidin]-1-yl)methyl)-N-hydroxybenzamide]", "values": [
      {"measurement": "acetylation of tubulin", "setting": "[2]", "value": "marked acetylation of tubulin"},
      {"measurement": "histone H3 acetylation", "setting": "[3]", "value": "unchanged"}
    ]},
    {"smiles": "CN1CCC2(CC1)c1ccccc1N(Cc1ccc(C(=O)NO)cc1)C2c1ccccc1", "note": "(racemic) [(±)-6a, (±)-N-Hydroxy-4-((1’-methyl-2-phenylspiro[indoline-3,4’-piperidin]-1-yl)methyl)benzamide]", "values": [
      {"measurement": "spheres formation", "setting": "[1]", "value": "complete inhibition"},
      {"measurement": "acetylation of tubulin", "setting": "[2]", "value": "marked acetylation of tubulin"},
      {"measurement": "histone H3 acetylation", "setting": "[3]", "value": "unchanged"}
    ]},
    {"smiles": "CN1CCC2(CC1)c1ccccc1N(Cc1ccc(C(=O)NO)cc1)C2c1ccccc1F", "note": "(racemic) [(±)-6d, (±)-4-((2-(2-Fluorophenyl)-1’-methylspiro[indoline-3,4’-piperidin]-1-yl)methyl)-N-hydroxybenzamide]", "values": [
      {"measurement": "spheres formation", "setting": "[1]", "value": "complete inhibition"},
      {"measurement": "acetylation of tubulin", "setting": "[2]", "value": "equally effective in inhibiting HDAC6"},
      {"measurement": "histone H3 acetylation", "setting": "[3]", "value": "also induced the acetylation of histone H3"}
    ]}
  ]
}
